Key:
Fusarium culmorum = conditions: in vivo
Rhizoctonia = conditions: in vivo

## O=[N+]([O-])NC1=NCCN1Cc1ccc(Cl)nc1 [Imidacloprid, N-[1-[(6-chloropyridin-3-yl)methyl]-4,5-dihydroimidazol-2-yl]nitramide]
Fusarium culmorum
  fungicidal activity of the insecticide by itself: does not have fungicidal activity by itself
  stimulation of the fungicidal action of natamycin: stimulates the fungicidal action of natamycin on seeds of different plants

## abamectin
Rhizoctonia
  fungicidal activity of the insecticide by itself: does not have fungicidal by itself
  stimulation of the fungicidal action of natamycin: stimulates the fungicidal action of natamycin against different fungal pathogens on seeds
